From patent US20250152585A1, “PHARMACEUTICAL COMPOUND” (Duke Street Bio Limited, priority 2022, published 2025) come the findings set out here.

Molecules are shown by their SMILES.

T1 sequence (Q9UGN5 whole entry, the tested form may be a part): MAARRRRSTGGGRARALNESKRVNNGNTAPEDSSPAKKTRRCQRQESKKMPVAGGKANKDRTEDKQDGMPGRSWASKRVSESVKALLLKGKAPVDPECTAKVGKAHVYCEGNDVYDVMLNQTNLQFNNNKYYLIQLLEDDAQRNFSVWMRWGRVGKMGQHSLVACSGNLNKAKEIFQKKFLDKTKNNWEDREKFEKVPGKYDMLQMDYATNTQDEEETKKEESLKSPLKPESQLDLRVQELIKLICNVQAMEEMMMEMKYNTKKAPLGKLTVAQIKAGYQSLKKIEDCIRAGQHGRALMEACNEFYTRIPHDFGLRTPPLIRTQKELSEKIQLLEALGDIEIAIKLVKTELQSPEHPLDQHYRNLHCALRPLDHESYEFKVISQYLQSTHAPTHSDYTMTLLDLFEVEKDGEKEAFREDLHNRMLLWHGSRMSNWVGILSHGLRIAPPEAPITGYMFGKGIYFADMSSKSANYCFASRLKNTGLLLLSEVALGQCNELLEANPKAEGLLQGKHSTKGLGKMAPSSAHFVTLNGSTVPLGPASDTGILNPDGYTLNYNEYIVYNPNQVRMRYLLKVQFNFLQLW

The first assay has as its target T1, N-terminally FLAG-tagged PARP2 (amino acids 1-583) (Homo sapiens, UniProt Q9UGN5).
T1 construct: N-terminally FLAG-tagged PARP2 (amino acids 1-583)
The assay is described as follows: PARP2 probe displacement HTRF assay. The following applies: binned Kd, probe displacement HTRF. Format: binding. The method, then:
Data analysis was performed identical as for PARP1.
Take `CNC(=O)c1ccc(N2CCC(N3CCC(c4cc5c(F)cncc5c(=O)[nH]4)C3)CC2)cn1` (single isomer, unassigned) [Compound 331b]: the Kd lay in the range of 1000 to 10000 nM.
Still for that read-out and setting: under `CCc1ccc(C2CCN(C3CCN(c4ccc(C#N)cn4)CC3)C2)[nH]c1=O` (single isomer, unassigned) [Compound 332b] stands 1000 to 10000 nM.
Still for that read-out and setting: under `CC(=O)NC(=O)c1ccc(N2CCC(N3CCC(c4cc5ccccc5c(=O)[nH]4)C3)CC2)cn1` (single isomer, unassigned) [Compound 333a] stands 100 to 1000 nM; under `CC(=O)NC(=O)c1ccc(N2CCC(N3CCC(c4cc5ccccc5c(=O)[nH]4)C3)CC2)cn1` (single isomer, unassigned) [Compound 333b], 1000 to 10000 nM.
The same measure, in the same setting: under `CCc1ccc(C2CCN(C3CCN(c4ccc(C(=O)NC5CC5)nc4)CC3)C2)[nH]c1=O` (single isomer, unassigned) [Compound 338a] stands 100 to 1000 nM.
As for `CCc1ccc(C2CCN(C3CCN(c4ccc(C(=O)NC5CC5)nc4)CC3)C2)[nH]c1=O` (single isomer, unassigned) [Compound 338b], the Kd lay within 1000 to 10000 nM.
Same read-out and setting: with `O=C(NC1CC1)c1ccc(N2CCC(N3CCC(c4cc5cccc(F)c5c(=O)[nH]4)C3)CC2)cn1` (single isomer, unassigned) [Compound 339b] the figure was 100 to 1000 nM; with `N#Cc1ccc(N2CCC(N3CCC(c4cc5cccc(F)c5c(=O)[nH]4)C3)CC2)nc1` (single isomer, unassigned) [Compound 340a], 100 to 1000 nM; with `N#Cc1ccc(N2CCC(N3CCC(c4cc5cccc(F)c5c(=O)[nH]4)C3)CC2)nc1` (single isomer, unassigned) [Compound 340b], 100 to 1000 nM.
The compound `CC(=O)NC(=O)c1ccc(N2CCC(N3CCC(c4cc5ccccc5c(=O)[nH]4)C3)CC2)cc1` (single isomer, unassigned) [Compound 341a] returned a Kd of 100 to 1000 nM.

In a further assay the target is T2, full length N-terminally FLAG-tagged PARP1 (Homo sapiens, UniProt P09874). Briefly: PARP1 probe displacement HTRF assay. The following applies: PARP1 over PARP2, ratio Kd (PARP2)/Kd (PARP1), probe displacement HTRF.
T2 sequence (P09874 whole entry): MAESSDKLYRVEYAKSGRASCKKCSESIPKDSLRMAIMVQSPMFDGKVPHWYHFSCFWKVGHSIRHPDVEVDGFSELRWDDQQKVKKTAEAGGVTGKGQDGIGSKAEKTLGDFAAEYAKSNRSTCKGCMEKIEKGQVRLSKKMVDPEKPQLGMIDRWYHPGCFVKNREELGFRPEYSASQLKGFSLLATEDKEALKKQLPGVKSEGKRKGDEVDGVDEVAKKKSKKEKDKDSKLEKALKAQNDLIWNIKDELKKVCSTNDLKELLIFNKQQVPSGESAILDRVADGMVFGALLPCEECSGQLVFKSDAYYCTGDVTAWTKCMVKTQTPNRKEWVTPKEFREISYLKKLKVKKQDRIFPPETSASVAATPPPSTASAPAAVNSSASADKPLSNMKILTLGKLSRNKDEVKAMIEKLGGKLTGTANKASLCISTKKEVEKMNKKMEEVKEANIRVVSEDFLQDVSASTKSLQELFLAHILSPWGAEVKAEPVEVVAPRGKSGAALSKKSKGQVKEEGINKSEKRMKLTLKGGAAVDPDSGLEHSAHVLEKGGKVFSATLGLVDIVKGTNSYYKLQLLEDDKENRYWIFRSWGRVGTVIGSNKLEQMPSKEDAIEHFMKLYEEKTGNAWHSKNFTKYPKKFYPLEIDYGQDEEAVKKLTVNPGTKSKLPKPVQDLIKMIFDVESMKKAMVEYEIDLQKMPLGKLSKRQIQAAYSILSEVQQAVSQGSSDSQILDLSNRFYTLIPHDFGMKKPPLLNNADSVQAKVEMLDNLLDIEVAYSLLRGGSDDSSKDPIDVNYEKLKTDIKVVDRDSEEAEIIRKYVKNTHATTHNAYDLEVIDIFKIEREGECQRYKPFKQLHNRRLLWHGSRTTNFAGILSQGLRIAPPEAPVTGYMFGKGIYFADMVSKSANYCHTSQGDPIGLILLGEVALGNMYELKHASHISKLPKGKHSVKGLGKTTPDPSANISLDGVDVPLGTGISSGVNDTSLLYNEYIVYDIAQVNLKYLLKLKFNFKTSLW
Regarding `CNC(=O)c1ccc(N2CCC(N3CCC(c4cc5c(F)cncc5c(=O)[nH]4)C3)CC2)cn1` (single isomer, unassigned) [Compound 331b], the Selectivity result was “+++ (+++ indicate a value of at least 100)”.
Still for that read-out and setting: under `CCc1ccc(C2CCN(C3CCN(c4ccc(C#N)cn4)CC3)C2)[nH]c1=O` (single isomer, unassigned) [Compound 332b] stands “+++ (+++ indicate a value of at least 100)”; under `CC(=O)NC(=O)c1ccc(N2CCC(N3CCC(c4cc5ccccc5c(=O)[nH]4)C3)CC2)cn1` (single isomer, unassigned) [Compound 333a], “+++ (+++ indicate a value of at least 100)”.
Same read-out and setting: under `CC(=O)NC(=O)c1ccc(N2CCC(N3CCC(c4cc5ccccc5c(=O)[nH]4)C3)CC2)cn1` (single isomer, unassigned) [Compound 333b] stands “+++ (+++ indicate a value of at least 100)”; under `CCc1ccc(C2CCN(C3CCN(c4ccc(C(=O)NC5CC5)nc4)CC3)C2)[nH]c1=O` (single isomer, unassigned) [Compound 338a], “+++ (+++ indicate a value of at least 100)”.
On the same count and under the same terms, under `CCc1ccc(C2CCN(C3CCN(c4ccc(C(=O)NC5CC5)nc4)CC3)C2)[nH]c1=O` (single isomer, unassigned) [Compound 338b] stands “++ (++ indicates a value of 50 to less than 100)”; under `O=C(NC1CC1)c1ccc(N2CCC(N3CCC(c4cc5cccc(F)c5c(=O)[nH]4)C3)CC2)cn1` (single isomer, unassigned) [Compound 339b], “+++ (+++ indicate a value of at least 100)”; under `N#Cc1ccc(N2CCC(N3CCC(c4cc5cccc(F)c5c(=O)[nH]4)C3)CC2)nc1` (single isomer, unassigned) [Compound 340a], “+++ (+++ indicate a value of at least 100)”.
On to `N#Cc1ccc(N2CCC(N3CCC(c4cc5cccc(F)c5c(=O)[nH]4)C3)CC2)nc1` (single isomer, unassigned) [Compound 340b], for which the Selectivity entry is “+ (+ indicates a value of 10 to less than 50)”.
On the same count and under the same terms, under `CC(=O)NC(=O)c1ccc(N2CCC(N3CCC(c4cc5ccccc5c(=O)[nH]4)C3)CC2)cc1` (single isomer, unassigned) [Compound 341a] stands “+++ (+++ indicate a value of at least 100)”.

Still in this assay, the particulars now being: read-out: PARP1 HTRF; binned Kd, probe displacement HTRF.
For the compound `CNC(=O)c1ccc(N2CCC(N3CCC(c4cc5c(F)cncc5c(=O)[nH]4)C3)CC2)cn1` (single isomer, unassigned) [Compound 331b], the Kd lay within 10 to 100 nM.
The same measure, in the same setting: under `CCc1ccc(C2CCN(C3CCN(c4ccc(C#N)cn4)CC3)C2)[nH]c1=O` (single isomer, unassigned) [Compound 332b] stands less than 10 nM; under `CC(=O)NC(=O)c1ccc(N2CCC(N3CCC(c4cc5ccccc5c(=O)[nH]4)C3)CC2)cn1` (single isomer, unassigned) [Compound 333a], less than 10 nM.
Consider `CC(=O)NC(=O)c1ccc(N2CCC(N3CCC(c4cc5ccccc5c(=O)[nH]4)C3)CC2)cn1` (single isomer, unassigned) [Compound 333b], for which the Kd was 10 to 100 nM.
`CCc1ccc(C2CCN(C3CCN(c4ccc(C(=O)NC5CC5)nc4)CC3)C2)[nH]c1=O` (single isomer, unassigned) [Compound 338a]: the Kd is less than 10 nM.
As to `CCc1ccc(C2CCN(C3CCN(c4ccc(C(=O)NC5CC5)nc4)CC3)C2)[nH]c1=O` (single isomer, unassigned) [Compound 338b], the Kd was 10 to 100 nM.
Still for that read-out and setting: with `O=C(NC1CC1)c1ccc(N2CCC(N3CCC(c4cc5cccc(F)c5c(=O)[nH]4)C3)CC2)cn1` (single isomer, unassigned) [Compound 339b] the figure was less than 10 nM; with `N#Cc1ccc(N2CCC(N3CCC(c4cc5cccc(F)c5c(=O)[nH]4)C3)CC2)nc1` (single isomer, unassigned) [Compound 340a], less than 10 nM.
On the same count and under the same terms, under `N#Cc1ccc(N2CCC(N3CCC(c4cc5cccc(F)c5c(=O)[nH]4)C3)CC2)nc1` (single isomer, unassigned) [Compound 340b] stands 10 to 100 nM; under `CC(=O)NC(=O)c1ccc(N2CCC(N3CCC(c4cc5ccccc5c(=O)[nH]4)C3)CC2)cc1` (single isomer, unassigned) [Compound 341a], less than 10 nM.

The next assay concerns the target T2, full length N-terminally FLAG-tagged PARP1. Briefly: PARP1 biochemical DELFIA assay (auto-PARylation). Details: recombinant full length human N-terminally FLAG-tagged PARP1. The following applies: binned IC50, biochemical auto-PARylation assay.
In the case of `CNC(=O)c1ccc(N2CCC(N3CCC(c4cc5c(F)cncc5c(=O)[nH]4)C3)CC2)cn1` (single isomer, unassigned) [Compound 331b], the IC50 fell in the range of 10 to 100 nM.
`CCc1ccc(C2CCN(C3CCN(c4ccc(C#N)cn4)CC3)C2)[nH]c1=O` (single isomer, unassigned) [Compound 332b]: the IC50 is less than 10 nM.
Same read-out and setting: under `CC(=O)NC(=O)c1ccc(N2CCC(N3CCC(c4cc5ccccc5c(=O)[nH]4)C3)CC2)cn1` (single isomer, unassigned) [Compound 333a] stands less than 10 nM; under `CC(=O)NC(=O)c1ccc(N2CCC(N3CCC(c4cc5ccccc5c(=O)[nH]4)C3)CC2)cn1` (single isomer, unassigned) [Compound 333b], 10 to 100 nM; under `CCc1ccc(C2CCN(C3CCN(c4ccc(C(=O)NC5CC5)nc4)CC3)C2)[nH]c1=O` (single isomer, unassigned) [Compound 338a], less than 10 nM.
As to `CCc1ccc(C2CCN(C3CCN(c4ccc(C(=O)NC5CC5)nc4)CC3)C2)[nH]c1=O` (single isomer, unassigned) [Compound 338b], the IC50 lay in the range of 10 to 100 nM.
Still for that read-out and setting: under `O=C(NC1CC1)c1ccc(N2CCC(N3CCC(c4cc5cccc(F)c5c(=O)[nH]4)C3)CC2)cn1` (single isomer, unassigned) [Compound 339b] stands less than 10 nM; under `N#Cc1ccc(N2CCC(N3CCC(c4cc5cccc(F)c5c(=O)[nH]4)C3)CC2)nc1` (single isomer, unassigned) [Compound 340a], less than 10 nM.
As to `N#Cc1ccc(N2CCC(N3CCC(c4cc5cccc(F)c5c(=O)[nH]4)C3)CC2)nc1` (single isomer, unassigned) [Compound 340b], the IC50 lay within 10 to 100 nM.
The same measure, in the same setting: under `CC(=O)NC(=O)c1ccc(N2CCC(N3CCC(c4cc5ccccc5c(=O)[nH]4)C3)CC2)cc1` (single isomer, unassigned) [Compound 341a] stands less than 10 nM.
